Where two headings read alike, the source gives them in different places. Marks after values point to notes of the source that are not given here.
Columns and labels:
[1] = humans; cited from earlier work
[2] = mouse, inhalation, 0.05%, 18 months; cited from earlier work
human leukocyte culture = conditions: cited from earlier work
[3] = 37° C.; cited from earlier work
cytochrome P-450 = conditions: microsomal preparations; cited from earlier work
[4] = test system: Chinese hamster lung fibroblast; conditions: cited from earlier work
[5] = rat, 10 ppm, with nitrous oxide; cited from earlier work
[6] = cited from earlier work; for metabolized fraction of the absorbed anesthetic: in vivo
[7] = test system: Chinese hamster ovary cells; conditions: cited from earlier work
[8] = subanesthetic and/or anesthetic concentrations; cited from earlier work
[9] = test system: spermatogonia cells and bone marrow cells; conditions: rat, one-year exposure, 1 and 10 ppm, with nitrous oxide; cited from earlier work
AAMU-Ab = experiment: Competitive antigen ELISA, cross-reactivity of AAMU-Ab; type: binding, rabbit; conditions: 0 = absence of inhibition or inhibition no higher than 40% at 5 × 10^−3 M
Method: (§1) Buffers and water without additives are filtered through millipore filters and kept for 1 week. BSA, antibodies, Tween™ 20 and horse radish peroxidase conjugates are added to these buffers and water just prior to use. Urine samples are usually collected 4 hours after drinking a cup of coffee (instant or brewed with approximately 100 mg of caffeine per cup) and stored at 80° C. The urine samples are diluted 10 times with sodium phosphate buffer (620 mosm, pH 7.50) and are subsequently diluted with water to give concentrations of AAMU and 1× no higher than 3×10^−6 M in the ELISA. All the pipettings are done with an eight-channel pipette, except those of the antibody and sample solutions. Starting with the last well, 100 μL of a carbonate buffer (100 mM, pH 9.6) containing 2.5 μg mL-^1 antibodies are added to each well. After 90 min. at room temperature, the wells are washed three times with […] of TPB: isotonic sodium phosphate buffer (310 mosm, pH 7.50) containing 0.05% Tween™ 20.
(§2) After the initial wash, unoccupied sites are blocked by incubation for 90 min. at room temperature with 100 μL TBP containing 3% BSA. The wells are washed four times with 100 μL TPB. […] The microplate is gently shaken with an orbital shaker at room temperature for 3-4 hours. The wells are washed three times with 100 μL TPB containing 1% BSA and three times with water containing 0.05% Tween™ 20. To the washed plate is added 150 μL of a substrate buffer composed of citric acid (25 mM) and sodium phosphate dibasic buffer (50 mM, pH 5.0) containing 0.06% hydrogen peroxide and 0.04% o-phenylenediamine hydrochloride.
(§3) Buffers and water without additives were filtered through millipore filters and kept for 1 week. BSA, antibodies, Tween™ 20 and horse radish peroxidase conjugates were added to these buffers and water just prior to use. Urine samples were usually collected 4 hours after drinking a cup of coffee (instant or brewed with approximately 100 mg of caffeine per cup) and stored at −80° C. They were diluted 10 times with sodium phosphate buffer (620 mosm, pH 7.50) and were subsequently diluted with water to give concentrations of AAMU and 1× no higher than 3×10^−6 M in the ELISA. All the pipettings were done with an eight-channel pipette, except those of the antibody and sample solutions. Starting with the last well, 100 μL of a carbonate buffer (100 mM, pH 9.6) containing 2.5 μg mL-^1 antibodies was pipetted. After 90 min. at room temperature, the wells were washed three times with 100 μL of TPB: isotonic sodium phosphate buffer (310 mosm, pH 7.50) containing 0.05% Tween™ 20.
(§4) After the initial wash, unoccupied sites were blocked by incubation for 90 min. at room temperature with 100 μL TBP containing 3% BSA. The wells were washed four times with 100 μL TPB. […] The microplate was gently shaken with an orbital shaker at room temperature for 3-4 hours. The wells were washed three times with 100 μL with TPB containing 1% BSA and three times with water containing 0.05% Tween™ 20. To the washed plate was added 150 μL of a substrate buffer composed of citric acid (25 mM) and sodium phosphate dibasic buffer (50 mM, pH 5.0) containing 0.06% hydrogen peroxide and 0.04% o-phenylenediamine hydrochloride. After 20 min. at room temperature with shaking, the reaction was stopped with 50 μL of 2.5 N HCl.
(§5) The cross reactivities of AAMU-Ab and 1×-Ab were tested using a wide variety of caffeine metabolites and structural analogs (Table 2 below). AAMU-Ab appeared highly specific for binding AAMU, while 1×-Ab appeared relatively specific for binding 1×.

1X-Ab = experiment: Competitive antigen ELISA, cross-reactivity of 1X-Ab; type: binding, rabbit; conditions: 0 = absence of inhibition or inhibition no higher than 40% at 5 × 10^−3 M
Method: as §1, §2, §3, §4, §5

[10] = cited from earlier work

| SMILES | % Cross-Reaction AAMU-Ab (AAMU-Ab) | % Cross-Reaction 1X-Ab (1X-Ab) | also measured |
| --- | --- | --- | --- |
| FC(F)(F)C(Cl)Br (racemic) [Halothane, 2-bromo-2-chloro-1,1,1-trifluoro-ethane] |  |  | minimum alveolar concentration (MAC) [1]: 0.64%; carcinogenicity [2]: no evidence of anesthetic-related carcinogenicity; mutagenesis, human leukocyte culture assay (human leukocyte culture): Negative; blood/gas coefficient [3]: 2.5; olive oil/water coefficient [3]: 220; concentration that destroys cytochrome P-450 (cytochrome P-450): 18800 µM; mutagenesis, Chinese hamster lung fibroblast assay [4]: Negative; fertility [5]: decreased fertility; metabolized fraction of the absorbed anesthetic [6]: 25-45%; mutagenesis, sister chromatid exchange [7]: Negative; teratogenic effects [8]: teratogenic, embryotoxic, and fetotoxic; mutagenesis, chromosomal damage [9]: chromosomal damage to spermatogonia cells and bone marrow cells |
| Cn1c(=O)c2c(ncn2C)n(C)c1=O [1,3,7-Trimethyl Xanthine (Caffeine), 1,3,7-Trimethyl Xanthine] | 0% | 0% |  |
| Cn1c(=O)c2[nH]cnc2n(C)c1=O [1,3-Dimethyl Xanthine (Theophylline), 1,3-Dimethyl Xanthine] | 0% | 0.2% |  |
| Cn1c(=O)[nH]c2ncn(C)c2c1=O [1,7-Dimethyl Xanthine (Paraxanthine), 1,7-Dimethyl Xanthine] | 0% | 0.5% |  |
| Cn1c(=O)[nH]c2[nH]c(=O)n(C)c2c1=O [1,7-Dimethyluric acid] | 0% | 0% |  |
| Cn1c(=O)[nH]c2nc[nH]c2c1=O [1-Methyl Xanthine (1X), 1-Methyl Xanthine] | 0% | 100% |  |
| Cn1c(=O)[nH]c2[nH]c(=O)[nH]c2c1=O [1-Methyluric acid] | 0% | 11% |  |
| Cn1cnc2c1c(=O)[nH]c(=O)n2C [3,7-Dimethyl Xanthine (Theobromine), 3,7-Dimethyl Xanthine] | 0% | 0% |  |
| Cn1c(=O)[nH]c(=O)c2[nH]cnc21 [3-Methyl Xanthine] | 0% | 0% |  |
| CC(=O)Nc1c(N)n(C)c(=O)n(C)c1=O [5-Acetamino-6-amino-1,3-dimethyluracil] | 0% | 0% |  |
| CC(=O)Nc1c(N)n(C)c(=O)[nH]c1=O [5-Acetamino-6-amino-1-methyluracil] | 100% | 0% |  |
| CC(=O)Nc1c(N)[nH]c(=O)[nH]c1=O [5-Acetamino-6-amino-uracil] | 0.6% | 0% |  |
| Cn1cnc2[nH]c(=O)[nH]c(=O)c21 [7-Methyl Xanthine] | 0% | 0% |  |
| Cc1nc2[nH]c(=O)[nH]c(=O)c2[nH]1 [8-Methyl Xanthine] | 0% | 0% |  |
| FC(F)OC(F)(F)C(F)Cl (stereo not drawn) [Enflurane] |  |  | concentration that destroys cytochrome P-450 (cytochrome P-450): 13300 µM; metabolized fraction of the absorbed anesthetic [6]: 2-8% |
| Nc1nc2nc[nH]c2c(=O)[nH]1 [Guanine] | 0% | 0% |  |
| O=c1[nH]cnc2nc[nH]c12 [Hypoxanthine] | 0% | 0% |  |
| O=c1cc[nH]c(=O)[nH]1 [Uracil] | 0% | 0% |  |
| O=c1[nH]c(=O)c2[nH]c(=O)[nH]c2[nH]1 [Uric acid] | 0% | 0% |  |
| O=c1[nH]c(=O)c2[nH]cnc2[nH]1 [Xanthine] | 0^a % | 0% |  |
| Nc1ccc(S(=O)(=O)c2ccc(N)cc2)cc1 [dapsone] |  |  | adverse reactions ([10]; fast acetylators): 17%; adverse reactions ([10]; slow acetylators): 46% |
| FC(F)OC(Cl)C(F)(F)F (stereo not drawn) [isoflurane] |  |  | metabolism, fraction of the absorbed anesthetic ([6]; estimated): approximately 0.2% |
| COC(F)(F)C(Cl)Cl [methoxyflurane] |  |  | concentration that destroys cytochrome P-450 (cytochrome P-450): 5800 µM |

Reference: patent publication US20040101477A1, “Individualization of therapy with anesthetics” (Xanthus Life Sciences, Inc., priority 2002, published 2004)
